How the values were obtained:
Type in all cases: in vivo, Balb/c mice
[1] = tested on: 4T1 tumor; assay: Short-term tumor inhibition (BLI, tumor size, 15 days); settings: DOX alone
Protocol: (§1) The 4T1 tumor-bearing Balb/c mice may be randomly divided into six groups. In at least one example embodiment, each group may include three mice. In at least one example embodiment, a first group may receive PLGA. In at least one example embodiment, a second group may receive SPNCD. In at least one example embodiment, a third group may receive SPNCD and may be irradiated with NIR for 1 minute. In at least one example embodiment, a fourth group may receive SPNCD and may be irradiated with NIR for 7 minutes. In at least one example embodiment, a fifth group may receive SPNC and may be irradiated with NIR for 1 minute. In at least one example embodiment, a sixth group may receive DOX.
(§2) Once tumor volumes reach or become greater than 100 mm^3, the mice may be intratumorally injected with the various conditions (e.g., PLGA in the instance of the first group, SPNCD in the instance of the second group, SPNCD+NIR-1 minute in the instance of the third group, SPNCD+NIR-7 minute in the instances of the fourth group, SPNC+NIR-1 minute in the instance of the fifth group, and DOX in the instance of the sixth group) every 2 days for 15 days. Tumor size and mouse body weight may be measured every 2 days for 15 days in total. […]

[2] = tested on: 4T1 tumor; assay: Long-term tumor inhibition and metastasis, 4T1 tumor mice; settings: DOX alone; PBS 30 days
Protocol: The 4T1 cells may be implanted into the mammary fat pads of six-week-old female Balb/c mice. In at least one example embodiment, about 1×10^6 cells may be implanted per mouse.
4T1 tumor-bearing Balb/c mice and BT549 tumor-bearing Nude mice ay be randomly divided into three groups. In at least one example embodiment, each group may include eight mice (PBS, SPNCD+NIR 7 min, DOX). Once tumor volumes reach or become greater than 100 mm^3, 4T1 tumor-bearing mice (DOX: 0.122 mg/kg) and BT549 tumor-bearing mice (DOX: 1.5 mg/kg) may be intratumorally injected with agents from the various conditions every 2 days for 15 days followed by NIR irradiation (808 nm, 1W). In at least one example embodiment, the DOX dose may be determined based on the IC50 of each cell line. Tumor size and mouse weight may be measured every 3 days for 80 days in total. Bioluminescence imaging (e.g., PerkinElmer, USA) may be conducted every 3 days by intraperitoneally injected D luciferin (e.g., 150 mg/kg) into 4T1 tumor-bearing Balb/c mice to observe the metastasis of 4T1 tumor-bearing Balb/c mice.
Tumor growth, mouse bodyweight, and tumor metastasis may be monitored for 80 days in 4T1 DOX-sensitive and BT459 DOX-resistant tumor mice. The mice may be randomly divided into four groups. In at least one example embodiment, each group may include five mice. […]

[3] = tested on: F4/80-positive TAM; assay: F4/80 immunostaining of tumor sections (TAM accumulation); settings: without NIR
Protocol: as §1, §2

[4] = tested on: 4T1 tumor; assay: Apoptosis in tumors (flow cytometry and TUNNEL assay); settings: no NIR
Protocol: as §1, §2

## COc1cccc2c1C(=O)c1c(O)c3c(c(O)c1C2=O)C[C@@](O)(C(=O)CO)C[C@@H]3O[C@H]1C[C@H](N)[C@H](O)[C@H](C)O1 [DOX, doxorubicin]
[1]
  tumor size: did not increase in size
[2]
  time-to-tumor metastasis: 60 days post injection
[3]
  F4/80-positive TAM accumulation versus PLGA treated groups: increased more
[4]
  apoptosis in tumor: induced significant apoptosis
